Data published in article PMC8776063, “Aurora Kinase A Is Involved in Controlling the Localization of Aquaporin-2 in Renal Principal Cells” (International Journal of Molecular Sciences, 2022).
Where two headings read alike, the source gives them in different places.

Legend:
AURKC = target: T1, AURKC (Homo sapiens, UniProt Q9UQB9); test: NanoBRET assay in HEK293T cells; type: cell-based
T1 construct: full-length wild-type AURKA, AURKB, and AURKC were obtained as plasmids cloned in frame with a C-terminal NanoLuc-fusion; host or cells: HEK293T
T1 sequence (Q9UQB9 1-309): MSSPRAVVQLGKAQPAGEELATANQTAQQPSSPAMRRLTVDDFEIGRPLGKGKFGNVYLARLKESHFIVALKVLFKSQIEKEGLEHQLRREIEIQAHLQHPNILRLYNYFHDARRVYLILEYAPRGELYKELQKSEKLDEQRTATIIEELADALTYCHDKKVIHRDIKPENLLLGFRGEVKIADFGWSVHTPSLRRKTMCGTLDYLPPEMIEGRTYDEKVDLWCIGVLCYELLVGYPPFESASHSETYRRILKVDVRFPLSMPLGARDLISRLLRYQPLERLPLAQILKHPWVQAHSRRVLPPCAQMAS

MAPK9 = target: T2, MAPK9 (Homo sapiens, UniProt P45984); test: Thermal shift assay; type: binding; details: read-out: ΔTm MAPK9
T2 construct: purchased in-house thermal shift (DSF) kinase panel (SGC Frankfurt); Promega NanoBRET for AURKA/B/C
T2 sequence (P45984 whole entry): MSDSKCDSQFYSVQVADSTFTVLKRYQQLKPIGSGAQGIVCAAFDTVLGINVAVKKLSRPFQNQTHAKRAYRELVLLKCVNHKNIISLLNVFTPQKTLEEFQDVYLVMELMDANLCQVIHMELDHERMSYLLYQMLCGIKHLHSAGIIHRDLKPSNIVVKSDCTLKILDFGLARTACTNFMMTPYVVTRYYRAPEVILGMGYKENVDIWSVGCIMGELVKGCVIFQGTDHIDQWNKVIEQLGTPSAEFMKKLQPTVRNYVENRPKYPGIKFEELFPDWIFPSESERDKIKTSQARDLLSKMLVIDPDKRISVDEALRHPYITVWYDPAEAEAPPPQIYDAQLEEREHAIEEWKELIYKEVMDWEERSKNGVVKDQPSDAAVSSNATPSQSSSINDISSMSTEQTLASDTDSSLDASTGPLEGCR

FGFR2 = target: T3, FGFR2 (Homo sapiens, UniProt P21802); test: Thermal shift assay; type: binding; details: read-out: ΔTm FGFR2
T3 construct: purchased in-house thermal shift (DSF) kinase panel (SGC Frankfurt); Promega NanoBRET for AURKA/B/C
T3 sequence (P21802 458-768): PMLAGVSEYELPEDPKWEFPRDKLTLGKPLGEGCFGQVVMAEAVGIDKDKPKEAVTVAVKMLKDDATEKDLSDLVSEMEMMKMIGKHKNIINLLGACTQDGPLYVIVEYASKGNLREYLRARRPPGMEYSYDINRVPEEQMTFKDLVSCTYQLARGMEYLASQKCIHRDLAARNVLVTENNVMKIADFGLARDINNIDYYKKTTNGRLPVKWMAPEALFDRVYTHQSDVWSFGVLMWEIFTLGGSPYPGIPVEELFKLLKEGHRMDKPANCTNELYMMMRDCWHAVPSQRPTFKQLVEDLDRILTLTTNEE

AAK1 = target: T4, AAK1 (Homo sapiens, UniProt Q2M2I8); test: Thermal shift assay; type: binding; details: read-out: ΔTm AAK1
T4 construct: purchased in-house thermal shift (DSF) kinase panel (SGC Frankfurt); Promega NanoBRET for AURKA/B/C
T4 sequence (Q2M2I8 27-365): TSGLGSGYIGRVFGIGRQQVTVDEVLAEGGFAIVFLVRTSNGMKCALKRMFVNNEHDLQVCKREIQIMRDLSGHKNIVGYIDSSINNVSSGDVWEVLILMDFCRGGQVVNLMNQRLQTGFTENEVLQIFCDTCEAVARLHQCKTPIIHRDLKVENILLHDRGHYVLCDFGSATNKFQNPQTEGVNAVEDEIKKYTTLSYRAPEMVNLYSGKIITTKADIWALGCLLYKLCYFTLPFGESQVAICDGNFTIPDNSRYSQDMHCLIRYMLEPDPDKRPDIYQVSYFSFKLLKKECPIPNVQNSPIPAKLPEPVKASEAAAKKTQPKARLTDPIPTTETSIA

CHEK2 = target: T5, CHEK2 (Homo sapiens, UniProt O96017); test: Thermal shift assay; type: binding; details: read-out: ΔTm CHEK2
T5 construct: purchased in-house thermal shift (DSF) kinase panel (SGC Frankfurt); Promega NanoBRET for AURKA/B/C
T5 sequence (O96017 210-531): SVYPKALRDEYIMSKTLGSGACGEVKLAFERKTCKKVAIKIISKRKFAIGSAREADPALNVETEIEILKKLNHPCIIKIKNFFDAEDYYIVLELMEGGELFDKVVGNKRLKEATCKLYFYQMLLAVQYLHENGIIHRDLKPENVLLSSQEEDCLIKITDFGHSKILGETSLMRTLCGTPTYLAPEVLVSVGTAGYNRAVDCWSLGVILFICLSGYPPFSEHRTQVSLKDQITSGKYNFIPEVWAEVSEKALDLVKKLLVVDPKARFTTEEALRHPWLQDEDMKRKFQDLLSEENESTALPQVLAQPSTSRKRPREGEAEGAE

VRK1 = target: T6, VRK1 (Homo sapiens, UniProt Q99986); test: Thermal shift assay; type: binding; details: read-out: ΔTm VRK1
T6 construct: purchased in-house thermal shift (DSF) kinase panel (SGC Frankfurt); Promega NanoBRET for AURKA/B/C
T6 sequence (Q99986 1-396): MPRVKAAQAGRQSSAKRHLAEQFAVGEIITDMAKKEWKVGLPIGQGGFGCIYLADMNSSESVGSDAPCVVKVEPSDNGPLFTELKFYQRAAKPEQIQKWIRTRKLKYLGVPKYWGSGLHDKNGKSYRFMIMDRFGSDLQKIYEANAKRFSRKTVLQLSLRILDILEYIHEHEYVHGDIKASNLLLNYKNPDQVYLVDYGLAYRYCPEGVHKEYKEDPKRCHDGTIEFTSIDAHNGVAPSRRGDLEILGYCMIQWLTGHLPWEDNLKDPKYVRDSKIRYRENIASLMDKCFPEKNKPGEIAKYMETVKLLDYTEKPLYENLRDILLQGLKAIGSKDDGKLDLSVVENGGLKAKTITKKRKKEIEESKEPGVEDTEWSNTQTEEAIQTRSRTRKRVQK

PIM1 = target: T7, PIM1 (Homo sapiens, UniProt P11309); test: Thermal shift assay; type: binding; details: read-out: ΔTm PIM1
T7 construct: purchased in-house thermal shift (DSF) kinase panel (SGC Frankfurt); Promega NanoBRET for AURKA/B/C
T7 sequence (P11309 whole entry): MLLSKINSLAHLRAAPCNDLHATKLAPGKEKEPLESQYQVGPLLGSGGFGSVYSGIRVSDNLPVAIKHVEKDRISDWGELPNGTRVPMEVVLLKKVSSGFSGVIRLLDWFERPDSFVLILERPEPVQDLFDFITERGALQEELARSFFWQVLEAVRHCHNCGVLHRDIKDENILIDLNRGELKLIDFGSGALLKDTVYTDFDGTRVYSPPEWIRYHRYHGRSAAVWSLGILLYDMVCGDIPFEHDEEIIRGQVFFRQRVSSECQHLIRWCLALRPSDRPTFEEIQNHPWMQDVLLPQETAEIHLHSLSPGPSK

MAP2K1 = target: T8, MAP2K1 (Homo sapiens, UniProt Q02750); test: Thermal shift assay; type: binding; details: read-out: ΔTm MAP2K1
T8 construct: purchased in-house thermal shift (DSF) kinase panel (SGC Frankfurt); Promega NanoBRET for AURKA/B/C
T8 sequence (Q02750 68-361): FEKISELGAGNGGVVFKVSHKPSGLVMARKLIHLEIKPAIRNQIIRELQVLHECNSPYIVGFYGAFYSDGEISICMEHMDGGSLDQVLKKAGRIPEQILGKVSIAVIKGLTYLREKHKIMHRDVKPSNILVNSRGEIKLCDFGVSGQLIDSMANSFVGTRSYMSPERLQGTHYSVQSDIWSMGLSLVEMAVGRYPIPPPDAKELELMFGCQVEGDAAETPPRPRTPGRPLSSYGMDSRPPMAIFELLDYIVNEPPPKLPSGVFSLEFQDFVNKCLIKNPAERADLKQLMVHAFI

AURKB = AURKB (Homo sapiens, UniProt Q96GD4); test: Thermal shift assay; type: binding; set-up: full-length wild-type AURKA, AURKB, and AURKC were obtained as plasmids cloned in frame with a C-terminal NanoLuc-fusion; details: read-out: ΔTm AURKB
Sequence of AURKB (Q96GD4 whole entry, the tested form may be a part): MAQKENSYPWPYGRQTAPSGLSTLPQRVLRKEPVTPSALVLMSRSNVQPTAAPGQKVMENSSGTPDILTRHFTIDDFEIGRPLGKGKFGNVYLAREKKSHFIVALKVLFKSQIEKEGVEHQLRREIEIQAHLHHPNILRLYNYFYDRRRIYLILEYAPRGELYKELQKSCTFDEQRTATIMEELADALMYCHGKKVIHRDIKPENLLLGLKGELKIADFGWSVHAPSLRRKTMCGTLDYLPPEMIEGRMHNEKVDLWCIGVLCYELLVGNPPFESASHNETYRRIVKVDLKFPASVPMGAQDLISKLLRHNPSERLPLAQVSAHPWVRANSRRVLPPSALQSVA

BRAF = target: T9, BRAF (Homo sapiens, UniProt P15056); test: Thermal shift assay; type: binding; details: read-out: ΔTm BRAF
T9 construct: purchased in-house thermal shift (DSF) kinase panel (SGC Frankfurt); Promega NanoBRET for AURKA/B/C
T9 sequence (P15056 448-723): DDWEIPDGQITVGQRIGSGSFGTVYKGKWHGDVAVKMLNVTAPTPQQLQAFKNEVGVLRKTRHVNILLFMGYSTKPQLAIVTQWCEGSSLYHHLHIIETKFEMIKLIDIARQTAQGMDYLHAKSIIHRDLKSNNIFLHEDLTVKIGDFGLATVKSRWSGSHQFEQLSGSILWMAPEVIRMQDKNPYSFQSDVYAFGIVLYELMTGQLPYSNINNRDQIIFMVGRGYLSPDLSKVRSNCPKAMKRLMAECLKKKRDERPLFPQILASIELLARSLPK

BMX = target: T10, BMX (Homo sapiens, UniProt P51813); test: Thermal shift assay; type: binding; details: read-out: ΔTm BMX
T10 construct: purchased in-house thermal shift (DSF) kinase panel (SGC Frankfurt); Promega NanoBRET for AURKA/B/C
T10 sequence (P51813 411-675): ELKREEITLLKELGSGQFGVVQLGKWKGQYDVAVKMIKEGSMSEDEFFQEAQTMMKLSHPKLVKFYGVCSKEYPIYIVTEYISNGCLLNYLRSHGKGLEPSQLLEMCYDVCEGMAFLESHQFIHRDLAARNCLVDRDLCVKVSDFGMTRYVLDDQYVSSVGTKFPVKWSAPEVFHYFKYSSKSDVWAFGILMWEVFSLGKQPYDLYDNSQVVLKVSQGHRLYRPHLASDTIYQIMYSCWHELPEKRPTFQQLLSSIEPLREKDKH

TTK = target: T11, TTK (Homo sapiens, UniProt P33981); test: Thermal shift assay; type: binding; details: read-out: ΔTm TTK
T11 construct: purchased in-house thermal shift (DSF) kinase panel (SGC Frankfurt); Promega NanoBRET for AURKA/B/C
T11 sequence (P33981 519-808): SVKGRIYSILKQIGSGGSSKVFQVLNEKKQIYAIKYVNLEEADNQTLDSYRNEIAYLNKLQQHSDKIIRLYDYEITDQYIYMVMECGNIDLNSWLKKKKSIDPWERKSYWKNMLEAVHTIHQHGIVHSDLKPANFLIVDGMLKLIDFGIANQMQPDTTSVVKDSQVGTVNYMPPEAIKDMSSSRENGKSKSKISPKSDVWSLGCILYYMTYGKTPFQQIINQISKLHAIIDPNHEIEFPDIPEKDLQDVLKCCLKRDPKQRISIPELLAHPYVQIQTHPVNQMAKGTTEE

FES = target: T12, FES (Homo sapiens, UniProt P07332); test: Thermal shift assay; type: binding; details: read-out: ΔTm FES
T12 construct: purchased in-house thermal shift (DSF) kinase panel (SGC Frankfurt); Promega NanoBRET for AURKA/B/C
T12 sequence (P07332 whole entry): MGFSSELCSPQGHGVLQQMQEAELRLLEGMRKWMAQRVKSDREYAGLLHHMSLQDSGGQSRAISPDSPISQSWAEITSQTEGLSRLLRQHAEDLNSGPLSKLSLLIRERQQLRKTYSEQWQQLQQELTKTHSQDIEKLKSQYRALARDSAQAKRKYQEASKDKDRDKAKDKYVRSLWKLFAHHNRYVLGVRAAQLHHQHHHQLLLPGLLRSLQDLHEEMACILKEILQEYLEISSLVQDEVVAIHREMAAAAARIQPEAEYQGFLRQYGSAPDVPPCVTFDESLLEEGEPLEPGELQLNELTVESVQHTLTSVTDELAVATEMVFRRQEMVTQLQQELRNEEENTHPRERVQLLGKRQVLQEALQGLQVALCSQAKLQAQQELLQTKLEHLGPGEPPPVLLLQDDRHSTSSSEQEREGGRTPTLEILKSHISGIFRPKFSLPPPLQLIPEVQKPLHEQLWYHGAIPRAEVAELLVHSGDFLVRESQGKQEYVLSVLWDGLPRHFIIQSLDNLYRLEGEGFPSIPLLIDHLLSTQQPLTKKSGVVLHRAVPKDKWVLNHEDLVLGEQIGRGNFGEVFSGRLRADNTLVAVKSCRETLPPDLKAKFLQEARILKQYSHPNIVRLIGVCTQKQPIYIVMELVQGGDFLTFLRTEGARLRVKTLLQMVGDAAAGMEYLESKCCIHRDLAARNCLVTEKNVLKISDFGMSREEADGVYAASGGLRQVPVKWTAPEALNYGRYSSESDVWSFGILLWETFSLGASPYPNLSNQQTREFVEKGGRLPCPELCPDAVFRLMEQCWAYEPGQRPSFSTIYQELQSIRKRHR

MCD4 cells = test: F-actin stress fiber staining (phalloidin); type: cell-based, mouse; details: compound 30 µM, 1 h
[1] = tested on: CFL1 phosphorylation in MCD4 cells; test: CFL1 phosphorylation, Western blotting; type: cell-based, mouse; details: compound 30 µM, 1 h; for CFL1 phosphorylation: absence and presence of forskolin; for CFL1 phosphorylation in combination with forskolin: forskolin 30 µM, 30 min
primary IMCD cells = test: AQP2 redistribution, immunofluorescence microscopy; details: for inhibition of the AVP-induced redistribution of AQP2 to the plasma membrane: 1 h (Aurora-A inhibitor I 1-30 µM)
STK10 = target: T13, STK10 (Homo sapiens, UniProt O94804); test: Thermal shift assay; type: binding; details: read-out: ΔTm STK10
T13 construct: purchased in-house thermal shift (DSF) kinase panel (SGC Frankfurt); Promega NanoBRET for AURKA/B/C
T13 sequence (O94804 18-317): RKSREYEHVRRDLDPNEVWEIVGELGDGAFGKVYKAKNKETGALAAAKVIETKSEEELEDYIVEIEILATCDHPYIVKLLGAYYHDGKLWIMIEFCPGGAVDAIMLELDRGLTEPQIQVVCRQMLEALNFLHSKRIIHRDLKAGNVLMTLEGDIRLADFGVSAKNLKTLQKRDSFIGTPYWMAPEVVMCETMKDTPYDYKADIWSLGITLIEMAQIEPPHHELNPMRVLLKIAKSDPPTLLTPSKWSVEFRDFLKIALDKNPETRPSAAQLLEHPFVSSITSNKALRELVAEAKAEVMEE

ULK3 = target: T14, ULK3 (Homo sapiens, UniProt Q6PHR2); test: Thermal shift assay; type: binding; details: read-out: ΔTm ULK3
T14 construct: purchased in-house thermal shift (DSF) kinase panel (SGC Frankfurt); Promega NanoBRET for AURKA/B/C
T14 sequence (Q6PHR2 1-277): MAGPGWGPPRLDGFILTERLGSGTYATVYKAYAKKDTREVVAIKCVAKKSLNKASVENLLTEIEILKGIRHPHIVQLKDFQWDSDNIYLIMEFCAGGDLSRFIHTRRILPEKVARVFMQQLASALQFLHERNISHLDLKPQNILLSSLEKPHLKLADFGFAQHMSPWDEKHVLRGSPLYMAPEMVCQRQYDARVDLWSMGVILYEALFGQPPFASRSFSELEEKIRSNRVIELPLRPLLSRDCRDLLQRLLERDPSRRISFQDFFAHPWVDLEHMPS

[2] = compound 20 µM, AVP 100 nM, 30 min
[3] = NanoBRET, n = 2, mean, Figure 6B, read-out: affinity to intracellular AURKC

IC50 (AURKC; [3]) [µM] | Compound | effect on actin stress fibers (MCD4 cells) | CFL1 phosphorylation [1] | CFL1 phosphorylation in combination with forskolin [1] | inhibition of the AVP-induced redistribution of AQP2 to the plasma membrane (primary IMCD cells; [2]) | ΔTm at 10 µM (MAPK9; compound 10 µM, n = 3) [°C] | ΔTm at 10 µM (FGFR2; compound 10 µM, n = 3) [°C] | ΔTm at 10 µM (AAK1; compound 10 µM, n = 3) [°C] | ΔTm at 10 µM (CHEK2; compound 10 µM, n = 3) [°C] | ΔTm at 10 µM (VRK1; compound 10 µM, n = 3) [°C] | ΔTm at 10 µM (PIM1; compound 10 µM, n = 3) [°C] | ΔTm at 10 µM (MAP2K1; compound 10 µM, n = 3) [°C] | ΔTm at 10 µM (AURKB; compound 10 µM, n = 3) [°C] | ΔTm at 10 µM (BRAF; compound 10 µM, n = 3) [°C] | ΔTm at 10 µM (BMX; compound 10 µM, n = 3) [°C] | ΔTm at 10 µM (TTK; compound 10 µM, n = 3) [°C] | ΔTm at 10 µM (FES; compound 10 µM, n = 3) [°C] | ΔTm at 10 µM (STK10; compound 10 µM, n = 3) [°C] | ΔTm at 10 µM (ULK3; compound 10 µM, n = 3) [°C] | also measured
 | CCN1CCN(C(=O)Cc2ccc(Nc3ncc(F)c(Nc4ccc(C(=O)Nc5ccccc5Cl)cc4)n3)cc2)CC1 [Aurora-A inhibitor I, reference compound] | depolymerization of actin stress fibers | significantly decreased | Significant additive effects | inhibits |  |  |  |  |  |  |  |  |  |  |  |  |  |  | IC50 (AURKC): > 50 µM; ΔTm at 10 µM (MAPK9): 2.9 °C; ΔTm at 10 µM (FGFR2): 2.5 °C; ΔTm at 10 µM (AAK1): 2.3 °C; ΔTm at 10 µM (CHEK2): 2.2 °C; ΔTm at 10 µM (VRK1): 0.4 °C; ΔTm at 10 µM (PIM1): 0.2 °C; ΔTm at 10 µM (MAP2K1): 0.2 °C; ΔTm at 10 µM (AURKB): -0.5 °C; ΔTm at 10 µM (BRAF): 1.1 °C; ΔTm at 10 µM (BMX): 2.1 °C; ΔTm at 10 µM (TTK): 1.9 °C; ΔTm at 10 µM (FES): 1.4 °C; effective concentration for inhibition of AQP2 redistribution (primary IMCD cells; 1, 10 or 30 µM, 1 h, AVP 100 nM, 30 min): greater than 1 µM; ΔTm at 10 µM (STK10): 3.8 °C; ΔTm at 10 µM (ULK3): 7.6 °C
44.5 | O=C(Cc1ccc(Nc2ncc(F)c(Nc3ccc(C(=O)Nc4ccccc4Cl)cc3)n2)cc1)NCCN1CCOCC1 [ERJ2-04] | Comparable effects |  | Significant additive effects | no significant difference between resting and AVP-stimulated cells | 1.9 | 1.5 | 4.4 | 1.2 | 0.3 | -0.2 | 0 | -0.8 | 0.8 | 1.5 | 1.8 | 0.5 | 0.6 | 6.2 | 
12 | NC(=O)Cc1ccc(Nc2ncc(F)c(Nc3ccc(C(=O)Nc4ccccc4Cl)cc3)n2)cc1 [ERJ2-06] | Comparable effects |  | Significant additive effects | no significant difference between resting and AVP-stimulated cells | 2.9 | 2.4 | 6.8 | 3.5 | 0.2 | 0.2 | 0 | 0.5 | 0.5 | 2.1 | 2.4 | 1.4 | 1.4 | 9.4 | 
 | CCN1CCN(C(=O)Cc2ccc(Nc3ncc(F)c(Nc4ccc(C(=O)O)cc4)n3)cc2)CC1 [ERJ2-12] | resembled those of the control cells | no effect |  | significantly differed | 3 | 2.9 | 3.8 | 0.3 | 0.1 | 1.1 | -0.1 | -2.5 | 0.7 | 0.9 | 0.6 | 0.4 | 2.2 | 4.3 | IC50 (AURKC; NanoBRET, n = 2, Figure 6B, bounds, read-out: affinity to intracellular AURKC): > 50 µM

Compound | IC50 (AURKC; [3]) [µM] | effect on actin stress fibers (MCD4 cells) | CFL1 phosphorylation [1] | CFL1 phosphorylation in combination with forskolin [1] | inhibition of the AVP-induced redistribution of AQP2 to the plasma membrane (primary IMCD cells; [2]) | ΔTm at 10 µM (MAPK9; compound 10 µM, n = 3) [°C] | ΔTm at 10 µM (FGFR2; compound 10 µM, n = 3) [°C] | ΔTm at 10 µM (AAK1; compound 10 µM, n = 3) [°C] | ΔTm at 10 µM (CHEK2; compound 10 µM, n = 3) [°C] | ΔTm at 10 µM (VRK1; compound 10 µM, n = 3) [°C] | ΔTm at 10 µM (PIM1; compound 10 µM, n = 3) [°C] | ΔTm at 10 µM (MAP2K1; compound 10 µM, n = 3) [°C] | ΔTm at 10 µM (AURKB; compound 10 µM, n = 3) [°C] | ΔTm at 10 µM (BRAF; compound 10 µM, n = 3) [°C] | ΔTm at 10 µM (BMX; compound 10 µM, n = 3) [°C] | ΔTm at 10 µM (TTK; compound 10 µM, n = 3) [°C] | ΔTm at 10 µM (FES; compound 10 µM, n = 3) [°C] | ΔTm at 10 µM (STK10; compound 10 µM, n = 3) [°C] | ΔTm at 10 µM (ULK3; compound 10 µM, n = 3) [°C] | also measured
CCN1CCN(C(=O)Cc2ccc(Nc3ncc(F)c(Nc4ccc(C(=O)Nc5ccccc5)cc4)n3)cc2)CC1 [ERJ2-11] | 46 | promoted or maintained the formation of actin stress fibers |  | Significant additive effects | no significant difference between resting and AVP-stimulated cells | 2.8 | 2.9 | 7.3 | 3.6 | 0.1 | 0.4 | 0 | -0.2 | 1.8 | 2.7 | 2.2 | 1.7 | 4.8 | 9.8 | AQP2 fluorescence intensity ratio compared to DMSO-treated control cells (primary IMCD cells; compound 20 µM, 1 h): significant decrease
